# Assay results from paper PMC11406516, “The Tuberculosis Drug Candidate SQ109 and Its Analogs Have Multistage Activity against Plasmodium falciparum” (ACS Infectious Diseases, 2024).
# Test system: PfK1
# Test: SYBR Green I proliferation assay, asexual blood stages, multidrug-resistant K1
# Conditions: Plasmodium falciparum, K1, read-out: Pf ABS IC50 K1
# Description: (§1) P. falciparum asexual parasites were cultured from drug-sensitive NF54 (PfNF54) and multidrug resistant strains PfK1. Parasites were maintained in human erythrocytes (O+, suspended at 5% hematocrit) in RPMI-1640 culture medium (23.81 mM sodium bicarbonate, 0.024 mg/mL gentamycin, 25 mM HEPES pH 7.5, 0.2% D-glucose, 0.2 mM hypoxanthine and Albumax II) under hypoxic conditions (5% CO2, 5% O2 and 90% N2) with moderate shaking (60 rpm) at 37 °C. Cultures were synchronized to >95% in the ring stage with 5% (w/v) D-sorbitol treatment.[28]
# (§2) Activity against the asexual stage of P. falciparum was evaluated using the SYBR Green I-based fluorescence assay as previously described.[4],[16] Cellular proliferation was measured on synchronized in vitro PfNF54 ring-stage parasites (1% parasitemia, 2% hematocrit), following drug pressure for 96 h. Chloroquine was used as the positive drug control for complete inhibition of parasite proliferation.
row,SMILES,IC50 [nM]
1,CC(C)=CCC/C(C)=C/CNCCNC12CC3CC(CC(C3)C1)C2 [Compound 9],2320 ± 550
2,CC(C)CCCC(C)CCCC(C)CCNCCNC1C2CC3CC(C2)CC1C3 (stereo not shown) [Compound 20],390 ± 10
3,CC(C)=CCC/C(C)=C/CC/C(C)=C/CNCCNC1C2CC3CC(C2)CC1C3 (stereo not shown) [Compound 21],1820 ± 310
4,c1ccc(CCNCCNC2C3CC4CC(C3)CC2C4)cc1 (stereo not shown) [Compound 22],1700 ± 210
5,c1ccc(Oc2cccc(CNCCNC3C4CC5CC(C4)CC3C5)c2)cc1 (stereo not shown) [Compound 23],4140 ± 1370

# Test system: male gametes (PfNF54)
# Test: Male gamete exflagellation inhibition assay (EIA)
# Assay type: cell-based
# Conditions: Plasmodium falciparum, 48 h, read-out: male gamete inhibition %
# Description: The EIA was performed using video microscopy by capturing the movement of exflagellation centers over time as previously described.[4],[30] Mature PfNF54 stage V gametocytes (>95%;) were treated with 2 μM of drug for 48 h before the activation of exflagellation, without removing drug pressure. Movement was semi-automatically quantified from 15 videos of 8–10 s each between 15 and 22.5 min after incubation. Each video was analyzed using ICY-bio image analysis software.
row,SMILES,inhibition at 2 µM [%]
1,CC(C)=CCC/C(C)=C/CC/C(C)=C/CNCCNC1C2CC3CC(C2)CC1C3 (stereo not shown) [Compound 21],95.5 ± 4.55

# Same assay, conditions: Plasmodium falciparum; 2 μM, 48 h; read-out: male gamete inhibition %
row,SMILES,inhibition at 2 µM [%]
1,CC(C)=CCC/C(C)=C/CNCCNC12CC3CC(CC(C3)C1)C2 [Compound 9],96.7 ± 3.33
2,CC(C)CCCC(C)CCCC(C)CCNCCNC1C2CC3CC(C2)CC1C3 (stereo not shown) [Compound 20],95 ± 5
3,c1ccc(CCNCCNC2C3CC4CC(C3)CC2C4)cc1 (stereo not shown) [Compound 22],92.1 ± 1.21

# Test system: oocyst formation
# Test: Standard membrane feeding assay (SMFA), oocyst formation in Anopheles coluzzii
# Assay type: in vivo
# Conditions: Plasmodium falciparum, 48 h, read-out: oocyst formation (% inhibition) TBA
# Description: Transmission-blocking activity was confirmed in the standard membrane feeding assay (SMFA), by determining transmission-reducing activity (TRA; reduction in oocyst counts) and transmission-blocking activity (TBA, reduction in oocyst prevalence), 8–10 days after feeding female mosquitoes on gametocyte-infected blood, treated with selected compounds (at 2 μM).
# SMFA was performed using glass feeders as is outlined.[4],[16] Once again, mature stage V gametocytes (>95%) were treated with 2 μM of each compound for 48 h prior to feeding. Anopheles coluzzii females were allowed to feed on gametocyte cultures (1.5–2.5% gametocytemia, 50% hematocrit in A+ male serum with fresh erythrocytes) in the dark for 40 min. All unfed or partially fed mosquitoes were removed, and remaining females housed for 8–10 days. Mosquitoes were dissected to remove midguts, and oocysts counted under bright field illumination at ×20–×40 magnification. The percentage of block in transmission (transmission-blocking activity; TBA) and the percentage of reduction in the number of oocysts (transmission-reducing activity; TRA) were calculated after normalizing to the control untreated sample.
row,SMILES,inhibition at 2 µM [%]
1,CC(C)=CCC/C(C)=C/CC/C(C)=C/CNCCNC1C2CC3CC(C2)CC1C3 (stereo not shown) [Compound 21],20

# Same assay, conditions: Plasmodium falciparum, 48 h, read-out: oocyst formation (% inhibition) TRA
row,SMILES,inhibition at 2 µM [%]
1,CC(C)=CCC/C(C)=C/CC/C(C)=C/CNCCNC1C2CC3CC(C2)CC1C3 (stereo not shown) [Compound 21],56

# Same assay, conditions: Plasmodium falciparum; 48 h drug treatment at 2 μM, single biological repeat; read-out: oocyst formation (% inhibition) TBA
row,SMILES,inhibition at 2 µM [%]
1,CC(C)=CCC/C(C)=C/CNCCNC12CC3CC(CC(C3)C1)C2 [Compound 9],47
2,CC(C)CCCC(C)CCCC(C)CCNCCNC1C2CC3CC(C2)CC1C3 (stereo not shown) [Compound 20],54
3,c1ccc(CCNCCNC2C3CC4CC(C3)CC2C4)cc1 (stereo not shown) [Compound 22],80

# Same assay, conditions: Plasmodium falciparum; 48 h drug treatment at 2 μM, single biological repeat; read-out: oocyst formation (% inhibition) TRA
row,SMILES,inhibition at 2 µM [%]
1,CC(C)=CCC/C(C)=C/CNCCNC12CC3CC(CC(C3)C1)C2 [Compound 9],70
2,CC(C)CCCC(C)CCCC(C)CCNCCNC1C2CC3CC(C2)CC1C3 (stereo not shown) [Compound 20],75
3,c1ccc(CCNCCNC2C3CC4CC(C3)CC2C4)cc1 (stereo not shown) [Compound 22],89

# Test system: PfNF54 LGc (stage IV/V gametocytes)
# Test: PrestoBlue late-stage gametocyte viability assay
# Assay type: cell-based, Plasmodium falciparum
# Conditions: LGc, compared to 1
# Description: Gametocytogenesis was induced on highly synchronized (>95%) asexual ring-stage parasites from PfNF54 at 0.5% parasitemia and 6% hematocrit and thereafter maintained in glucose-deprived media as previously described.[29],[15] After 3 days, the hematocrit was decreased to 4%. Parasites were maintained in complete culture media supplemented with 50 mM N-acetyl-glucosamine 5–10 days post induction to inhibit proliferation of residual asexual blood stages. Gametocyte progression and morphology was also monitored microscopically using Giemsa-stained thin smears.
# activity against the sexual stages of P. falciparum was evaluated using the PrestoBlue fluorescence assay as previously described.[4] Activity was measured on PfNF54 stage IV/V gametocytes (2% gametocytemia, 5% hematocrit) previously seeded with compounds (in non-lethal DMSO) for 48 h drug pressure, after which PrestoBlue reagent was added and incubated for 2 h. Fluorescence was detected in the supernatant at 612 nm. Dihydroartemisinin (DHA) was used as a positive drug control.
row,SMILES,fold loss in gametocyte activity [fold]
1,c1ccc(CCNCCNC2C3CC4CC(C3)CC2C4)cc1 (stereo not shown) [Compound 22],7

# Same assay, conditions: Plasmodium falciparum; stage IV/V gametocytes, 48 h drug pressure; read-out: PfNF54 LGc IC50
row,SMILES,IC50 [nM]
1,CC(C)=CCC/C(C)=C/CNCCNC12CC3CC(CC(C3)C1)C2 [Compound 9],700 ± 10
2,CC(C)CCCC(C)CCCC(C)CCNCCNC1C2CC3CC(C2)CC1C3 (stereo not shown) [Compound 20],540 ± 40
3,CC(C)=CCC/C(C)=C/CC/C(C)=C/CNCCNC1C2CC3CC(C2)CC1C3 (stereo not shown) [Compound 21],510 ± 70
4,c1ccc(CCNCCNC2C3CC4CC(C3)CC2C4)cc1 (stereo not shown) [Compound 22],740 ± 150
5,c1ccc(Oc2cccc(CNCCNC3C4CC5CC(C4)CC3C5)c2)cc1 (stereo not shown) [Compound 23],1510 ± 420

# Test system: HepG2 cells
# Test: HepG2 cytotoxicity, LDH release assay
# Conditions: Homo sapiens, HepG2, 24 h, read-out: HepG2 EC50
# Description: (§3) Furthermore, compounds were evaluated against late (stage IV/V) gametocytes from PfNF54 (PfNF54 LGc), with viability detected with PrestoBlue,[15] and orthogonally evaluated for toxicity against a human hepatocellular carcinoma line, HepG2.[16]
# (§4) Human hepatocellular liver carcinoma cells (HepG2) were cultivated in vitro in Dulbecco’s Modified Eagle’s Medium (DMEM) supplemented with 10% (v/v) heat inactivated fetal bovine serum and 1% (v/v) penicillin/streptomycin.[14] Cells were detached with trypsin treatment at 80% confluency and were seeded in 96-well plates to adhere for 24 h under 5% CO2, humid (95%) conditions. Cells were subsequently exposed to drug pressure for 24 h and cytotoxicity was then determined using the lactate dehydrogenase (LDH) release assay through the colorimetric detection at 450 nm, as previously outlined.[4],[16]
row,SMILES,EC50 [nM]
1,CC(C)=CCC/C(C)=C/CNCCNC12CC3CC(CC(C3)C1)C2 [Compound 9],12900 ± 1400
2,CC(C)CCCC(C)CCCC(C)CCNCCNC1C2CC3CC(C2)CC1C3 (stereo not shown) [Compound 20],5110 ± 850
3,c1ccc(Oc2cccc(CNCCNC3C4CC5CC(C4)CC3C5)c2)cc1 (stereo not shown) [Compound 23],20000 ± 5690

# Test system: not listed separately
# Test: HepG2 cytotoxicity, LDH release assay
# Conditions: human, HepG2 cells
# Description: as §3, §4
row,SMILES,"viability at 24 h, 20 µM [%]"
1,CC(C)=CCC/C(C)=C/CC/C(C)=C/CNCCNC1C2CC3CC(C2)CC1C3 (stereo not shown) [Compound 21],75
2,c1ccc(CCNCCNC2C3CC4CC(C3)CC2C4)cc1 (stereo not shown) [Compound 22],100

# Test system: female gametes
# Test: Female gamete inhibition assay
# Assay type: cell-based, Plasmodium falciparum
# Design: concentration or dose not given beside the values
# Conditions: not given
# Description: Similarly, female gametes were activated as described previously.[31] Monoclonal anti-Pfs antibody conjugated to FITC was used to detect female gametes. Image acquisition was performed using a Zeiss Axio Lab.A1 epifluorescence microscope with a 100/1.4 numerical aperture (NA) oil immersion. Thirty images were captured per sample and analyzed manually.
row,SMILES,female gamete inhibition % [%]
1,CC(C)=CCC/C(C)=C/CNCCNC12CC3CC(CC(C3)C1)C2 [Compound 9],90.50 ± 7.17
2,CC(C)CCCC(C)CCCC(C)CCNCCNC1C2CC3CC(C2)CC1C3 (stereo not shown) [Compound 20],77.52 ± 10.85
3,CC(C)=CCC/C(C)=C/CC/C(C)=C/CNCCNC1C2CC3CC(C2)CC1C3 (stereo not shown) [Compound 21],86.30 ± 2.58
4,c1ccc(CCNCCNC2C3CC4CC(C3)CC2C4)cc1 (stereo not shown) [Compound 22],85.40 ± 7.62

# Test system: PfNF54 ABS
# Test: SYBR Green I proliferation assay, asexual blood stages, drug-sensitive NF54
# Conditions: Plasmodium falciparum, NF54, 96 h, read-out: Pf ABS IC50 NF54
# Description: as §1, §2
row,SMILES,IC50 [nM]
1,CC(C)=CCC/C(C)=C/CNCCNC12CC3CC(CC(C3)C1)C2 [Compound 9],990 ± 210
2,CC(C)CCCC(C)CCCC(C)CCNCCNC1C2CC3CC(C2)CC1C3 (stereo not shown) [Compound 20],390 ± 150
3,CC(C)=CCC/C(C)=C/CC/C(C)=C/CNCCNC1C2CC3CC(C2)CC1C3 (stereo not shown) [Compound 21],650
4,c1ccc(CCNCCNC2C3CC4CC(C3)CC2C4)cc1 (stereo not shown) [Compound 22],730 ± 40
5,c1ccc(Oc2cccc(CNCCNC3C4CC5CC(C4)CC3C5)c2)cc1 (stereo not shown) [Compound 23],960 ± 10

# Test system: HepG2 cells
# Test: not given
# Conditions: not given
row,SMILES,cytotoxicity to HepG2 cells (in words)
1,CC(C)CCCC(C)CCCC(C)CCNCCNC1C2CC3CC(C2)CC1C3 (stereo not shown) [Compound 20],moderately cytotoxic
2,c1ccc(CCNCCNC2C3CC4CC(C3)CC2C4)cc1 (stereo not shown) [Compound 22],moderately cytotoxic
3,c1ccc(Oc2cccc(CNCCNC3C4CC5CC(C4)CC3C5)c2)cc1 (stereo not shown) [Compound 23],moderately cytotoxic
